Source: patent US20260272916A1, “RADIATION SENSITIVITY ENHANCING COMPOSITION CONTAINING ARIPIPRAZOLE AS ACTIVE INGREDIENT” (KOREA INSTITUTE OF RADIOLOGICAL & MEDICAL SCIENCES, priority 2018, published 2026)

Columns and labels:
MCF-7 cells [1] = assay: Drug library screen for radiation sensitizers, EZ-Cytox cell viability; format: cell-based, human; set-up: dose or concentration left out as unconfirmed; conditions: 96 hours, FIG. 1
Procedure: MCF-7 cells, a human breast cancer cell line, were adjusted to a concentration of 5000 cells/well, then inoculated into a 96 well plate and pre-cultured for 24 hours. Subsequently, the medium was removed, and each drug in Enzo's drug library at a concentration of […] was treated alone or in combination with radiation. After 96 hours, the survival rate of cells was measured by Dogen's EZ-Cytox Cell Viability Assay kit.

MCF-7 cells [2] = assay: Cell viability at various aripiprazole concentrations alone or with radiation (EZ-Cytox); format: cell-based, human; conditions: 96 hours, FIG. 2
Procedure: In order to confirm the effect of aripiprazole on radiation sensitivity in cancer cells, a cell viability measurement experiment was performed in breast cancer cells having radiation resistance using the […] as follows. After the MCF-7 cells were adjusted to a concentration of 5000 cells/well, they were inoculated into a 96-well plate and pre-cultured for 24 hours. Thereafter, the medium was removed and aripiprazole ([…]) was treated alone or in combination with radiation. After 96 hours, the survival rate of cells was measured by Dogen's EZ-Cytox Cell Viability Assay kit.

MCF-7 cells [3] = conditions: 24 hours, FIG. 3
Procedure: The MCF-7 cells were treated with aripiprazole (1, 5, 10, 20 μM) alone or in combination with radiation. After 24 hours, after washing with PBS, proteins were extracted from the cells, and the degree of PARP cleavage was confirmed by Western blot.
(§1) After 24 hours, after washing with PBS, proteins were extracted from the cells, and the degree of PARP cleavage was confirmed by Western blot.
as §1

MCF-7 cells [4] = conditions: MCF-7, combination with radiation vs single treatments, 24 hours, FIG. 4
Procedure: (§2) After the MCF-7 cells or U251 cells were adjusted to a concentration of 5000 cells/well, they were inoculated into a 96 well plate and pre-cultured for 24 hours. Thereafter, the medium was removed and aripiprazole was treated alone or in combination with radiation. After 24 hours, the degree of DNA fragmentation was confirmed using Roche's Cell Death Detection ELISA plus kit.
(§3) After 24 hours, the degree of DNA fragmentation was confirmed using Roche's Cell Death Detection ELISA plus kit.
as §3

U251 cells = assay: DNA fragmentation, Cell Death Detection ELISA plus kit; format: cell-based; conditions: U251, combination with radiation vs single treatments, 24 hours, FIG. 4
Procedure: as §2

O=C1CCc2ccc(OCCCCN3CCN(c4cccc(Cl)c4Cl)CC3)cc2N1 [aripiprazole, 7-{4-[4-(2,3-dichlorophenyl)-1-piperazinyl]-butoxy}-3,4-dihydro-2(1H)-quinolinone]
survival rate of cells (MCF-7 cells [1]; MCF-7, drug treatment alone): no effect on the survival rate of cells
survival rate of cells (MCF-7 cells [1]; MCF-7, in combination with radiation): lowers the survival rate of radiation-resistant cells
radiation sensitizing effect (MCF-7 cells [2]; MCF-7, aripiprazole 5, 10, 20 μM with radiation): excellent radiation sensitizing effect in a concentration-dependent manner
survival rate reduction effect (MCF-7 cells [2]; MCF-7, aripiprazole 5, 10, 20 µM, combination with radiation vs alone): more excellent when treated in combination with radiation than the treatment with aripiprazole alone
induction of apoptosis in radiation-treated cancer cells (MCF-7 cells [3]; MCF-7, aripiprazole 1, 5, 10, 20 μM with radiation): induce apoptosis in radiation-treated cancer cells in a concentration-dependent manner
PARP cleavage induction effect (MCF-7 cells [3]; MCF-7, aripiprazole 1, 5, 10, 20 μM, combination with radiation vs alone): more excellent when treated in combination with radiation than treated aripiprazole alone
DNA fragmentation inducing effect (MCF-7 cells [4]): superior to the effect of adding up each treatment
DNA fragmentation inducing effect (U251 cells): superior to the effect of adding up each treatment
